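The compound was tested at five concentrations on cells cultured in 96-well plates, with a 48-hour exposure period. GI50 marks 50% less growth.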 Calls of active or inactive are those of the source. Rule as the data show it: active = GI50 up to about 1.1 µM and inactive = higher.
Key:
Test in all cases: NCI-60 cell line screen, 48 h
NCI-H522 = tested on: NCI-H522
RPMI-8226 = tested on: RPMI-8226
MDA-MB-435 = tested on: MDA-MB-435
HL-60 = tested on: HL-60
OVCAR-5 = tested on: OVCAR-5
CCRF-CEM = tested on: CCRF-CEM
MCF7 = tested on: MCF7
KM12 = tested on: KM12
OVCAR-3 = tested on: OVCAR-3
COLO 205 = tested on: COLO 205
ACHN = tested on: ACHN
RXF 393 = tested on: RXF 393
HT-29 = tested on: HT-29
SW-620 = tested on: SW-620
OVCAR-4 = tested on: OVCAR-4
NCI-H460 = tested on: NCI-H460
NCI/ADR-RES = tested on: NCI/ADR-RES
MOLT-4 = tested on: MOLT-4
HCT-15 = tested on: HCT-15
SK-MEL-28 = tested on: SK-MEL-28

SMILES | GI50 (NCI-H522) | GI50 (RPMI-8226) | GI50 (MDA-MB-435) | GI50 (HL-60) | GI50 (OVCAR-5) | GI50 (CCRF-CEM) | GI50 (MCF7) | GI50 (KM12) | GI50 (OVCAR-3) | GI50 (COLO 205) | GI50 (ACHN) | GI50 (RXF 393) | GI50 (HT-29) | GI50 (SW-620) | GI50 (OVCAR-4) | GI50 (NCI-H460) | GI50 (NCI/ADR-RES) | GI50 (MOLT-4) | GI50 (HCT-15) [µM] | GI50 (SK-MEL-28)
C1CCCN(NC2=NCCO2)CC1 | > 100 µM (inactive) | > 100 µM (inactive) | > 100 µM (inactive) | > 100 µM (inactive) | > 100 µM (inactive) | > 100 µM (inactive) | > 100 µM (inactive) | > 100 µM (inactive) | > 100 µM (inactive) | > 100 µM (inactive) | > 100 µM (inactive) | > 100 µM (inactive) | > 100 µM (inactive) | > 100 µM (inactive) | > 100 µM (inactive) | > 100 µM (inactive) | > 100 µM (inactive) | > 100 µM (inactive) | > 100 | –
CC/C(Cl)=N\OC(=O)Nc1ccccc1OC(F)(F)F | 0.665 µM (active) | 1.73 µM (inactive) | 19.4 µM (inactive) | 1.97 µM (inactive) | 20.1 µM (inactive) | 1.75 µM (inactive) | 9.12 µM (inactive) | 20.6 µM (inactive) | 8.22 µM (inactive) | 2.1 µM (inactive) | 1.91 µM (inactive) | 16.7 µM (inactive) | 21.3 µM (inactive) | 2.52 µM (inactive) | 19.8 µM (inactive) | 20.7 µM (inactive) | 14.9 µM (inactive) | 1.81 µM (inactive) | 3.21 | 20.1 µM (inactive)
CC(C)=CCN1c2ccccc2[C@@]2(CC=C(C)C)CCN(C)[C@@H]12 [(+)-DEBROMOFLUSTRAMINE B] | 18.6 µM (inactive) | 21.6 µM (inactive) | 21.1 µM (inactive) | 16.1 µM (inactive) | > 100 µM (inactive) | 34.2 µM (inactive) | 17.3 µM (inactive) | 24.5 µM (inactive) | 18.1 µM (inactive) | 13.9 µM (inactive) | 32.5 µM (inactive) | 28.5 µM (inactive) | 19.5 µM (inactive) | 26.7 µM (inactive) | 35.6 µM (inactive) | 14.8 µM (inactive) | 18.3 µM (inactive) | 25.6 µM (inactive) | 25.6 | 35.5 µM (inactive)
Cc1cc(S(=O)(=O)N/C(=N/N)NCCc2ccccc2)c(S)cc1Cl | 29.6 µM (inactive) | 32.7 µM (inactive) | 22 µM (inactive) | 44.1 µM (inactive) | 19.5 µM (inactive) | 25.1 µM (inactive) | 32.4 µM (inactive) | 23.4 µM (inactive) | 24.5 µM (inactive) | 49.3 µM (inactive) | – | 21.7 µM (inactive) | 31.6 µM (inactive) | 24 µM (inactive) | 22.9 µM (inactive) | – | 22.9 µM (inactive) | 17.7 µM (inactive) | 19.2 | 20.7 µM (inactive)
N#C/C(=N/Nc1[nH]cnc1C(N)=O)C(=O)Nc1ccccc1 | 7.71 µM (inactive) | 2.16 µM (inactive) | 22.1 µM (inactive) | 28.9 µM (inactive) | 34.6 µM (inactive) | 3.23 µM (inactive) | 54 µM (inactive) | 13.9 µM (inactive) | 5.41 µM (inactive) | 16.5 µM (inactive) | 15.2 µM (inactive) | 59.4 µM (inactive) | 48.6 µM (inactive) | 12.5 µM (inactive) | 14.6 µM (inactive) | 37.6 µM (inactive) | 3.45 µM (inactive) | 4.88 µM (inactive) | 35.5 | 88.5 µM (inactive)
N[C@@H]1CCN(c2c(F)cc3c(=O)c(C(=O)O)cn4c3c2Oc2c-4ccc3c2ccc2ccccc23)C1 | 3.18 µM (inactive) | 0.396 µM (active) | 3.03 µM (inactive) | 5.16 µM (inactive) | 2.86 µM (inactive) | – | 0.667 µM (active) | 4.38 µM (inactive) | 21.5 µM (inactive) | 2.99 µM (inactive) | 0.305 µM (active) | 1.2 µM (inactive) | 0.241 µM (active) | 0.671 µM (active) | 1.17 µM (inactive) | 0.396 µM (active) | 23.2 µM (inactive) | 4 µM (inactive) | 1.96 | > 100 µM (inactive)
CCCCn1c(N)c(-c2nc3ccccc3o2)sc1=S | 14.2 µM (inactive) | 21.7 µM (inactive) | 12.6 µM (inactive) | > 100 µM (inactive) | 24.8 µM (inactive) | 32.8 µM (inactive) | 24.7 µM (inactive) | 12.5 µM (inactive) | 16.7 µM (inactive) | 29.4 µM (inactive) | 10.3 µM (inactive) | 36.7 µM (inactive) | 27.4 µM (inactive) | – | 5.81 µM (inactive) | 15.8 µM (inactive) | 18.2 µM (inactive) | 43 µM (inactive) | 15.4 | 18.8 µM (inactive)
COC1=CC(=O)c2c(c(-c3csc(C)n3)cn2C)C1=O | 18.5 µM (inactive) | 5.24 µM (inactive) | 13.8 µM (inactive) | 2.13 µM (inactive) | 49.5 µM (inactive) | 19.2 µM (inactive) | 21.7 µM (inactive) | 22.8 µM (inactive) | 9.14 µM (inactive) | 19.8 µM (inactive) | 25.8 µM (inactive) | 18.3 µM (inactive) | 23.1 µM (inactive) | 35.9 µM (inactive) | 58.2 µM (inactive) | 3.43 µM (inactive) | 22 µM (inactive) | 31.9 µM (inactive) | 6.34 | 44.5 µM (inactive)
CCCCCCCCCCCCCC[S+](C)C | 1.75 µM (inactive) | 0.601 µM (active) | 1.91 µM (inactive) | 1.03 µM (active) | 2.88 µM (inactive) | 1.23 µM (inactive) | 1.67 µM (inactive) | 1.57 µM (inactive) | 1.48 µM (inactive) | 1.62 µM (inactive) | 3.32 µM (inactive) | 1.2 µM (inactive) | 1.56 µM (inactive) | 2.33 µM (inactive) | 2.4 µM (inactive) | 2.11 µM (inactive) | > 10 µM (inactive) | 1.23 µM (inactive) | 3.93 | 2.58 µM (inactive)
Cc1cc(C)n(-c2nc(-n3nc(C)cc3C)nc(-n3nc(C)cc3C)n2)n1 | > 100 µM (inactive) | 93.1 µM (inactive) | > 100 µM (inactive) | > 100 µM (inactive) | > 100 µM (inactive) | 62.7 µM (inactive) | > 100 µM (inactive) | > 100 µM (inactive) | > 100 µM (inactive) | > 100 µM (inactive) | 38.6 µM (inactive) | > 100 µM (inactive) | > 100 µM (inactive) | > 100 µM (inactive) | > 100 µM (inactive) | 33.2 µM (inactive) | > 100 µM (inactive) | > 100 µM (inactive) | 83.8 | > 100 µM (inactive)
Cc1ccc(-c2nc(-c3cnccn3)n(C3OC(CO)C(O)C(O)C3O)n2)cc1 (centres undefined) | > 100 µM (inactive) | > 100 µM (inactive) | > 100 µM (inactive) | > 100 µM (inactive) | > 100 µM (inactive) | > 100 µM (inactive) | > 100 µM (inactive) | > 100 µM (inactive) | > 100 µM (inactive) | > 100 µM (inactive) | – | > 100 µM (inactive) | > 100 µM (inactive) | > 100 µM (inactive) | > 100 µM (inactive) | > 100 µM (inactive) | > 100 µM (inactive) | > 100 µM (inactive) | > 100 | > 100 µM (inactive)
O=C1c2cccnc2C(=O)C2C3C=CC(C3)C12 (centres undefined) | 3.27 µM (inactive) | 2.49 µM (inactive) | 2.25 µM (inactive) | 1.74 µM (inactive) | 18.3 µM (inactive) | 1.18 µM (inactive) | 3.52 µM (inactive) | 14.5 µM (inactive) | 13.5 µM (inactive) | 13.3 µM (inactive) | 7.53 µM (inactive) | 2.69 µM (inactive) | 27.2 µM (inactive) | 4.41 µM (inactive) | 5.01 µM (inactive) | 3.49 µM (inactive) | 4.52 µM (inactive) | – | 12 | 15.2 µM (inactive)
CCOC(=O)C(=CNc1ccc(S(N)(=O)=O)cc1)C(=O)OCC | > 100 µM (inactive) | > 100 µM (inactive) | > 100 µM (inactive) | > 100 µM (inactive) | > 100 µM (inactive) | > 100 µM (inactive) | > 100 µM (inactive) | – | > 100 µM (inactive) | > 100 µM (inactive) | > 100 µM (inactive) | > 100 µM (inactive) | > 100 µM (inactive) | > 100 µM (inactive) | > 100 µM (inactive) | > 100 µM (inactive) | > 100 µM (inactive) | > 100 µM (inactive) | > 100 | > 100 µM (inactive)
N#CC(NCc1cccc(CNC(C#N)c2ccccc2)c1)c1ccccc1 (centres undefined) | 40.3 µM (inactive) | 21.1 µM (inactive) | 99.8 µM (inactive) | 20.7 µM (inactive) | > 100 µM (inactive) | 18.1 µM (inactive) | 19.3 µM (inactive) | 22.3 µM (inactive) | > 100 µM (inactive) | 19.5 µM (inactive) | > 100 µM (inactive) | 60.4 µM (inactive) | 16.4 µM (inactive) | 24.5 µM (inactive) | 56 µM (inactive) | – | > 100 µM (inactive) | 16 µM (inactive) | 25.8 | 18.1 µM (inactive)
Clc1ccc(NCc2nnc(COc3ccc(OCc4nnc(CNc5ccc(Cl)cc5)o4)c(Cl)c3)o2)cc1 | 10.6 µM (inactive) | 9.51 µM (inactive) | 18.5 µM (inactive) | 3.52 µM (inactive) | > 100 µM (inactive) | 11.2 µM (inactive) | 17.5 µM (inactive) | 26.9 µM (inactive) | 29.7 µM (inactive) | 10.9 µM (inactive) | 38.1 µM (inactive) | 47.3 µM (inactive) | 27.2 µM (inactive) | 38.2 µM (inactive) | – | 42.6 µM (inactive) | 5.68 µM (inactive) | – | 43.6 | 75.3 µM (inactive)

From ChEMBL document CHEMBL1201862, “PubChem BioAssay data set” (2004)
